Test results reported in patent US10544143B2, “4-azaindole compounds” (BRISTOL-MYERS SQUIBB COMPANY, priority 2017, dated 2020).

Key:
human TLR7 = human TLR7 (Homo sapiens (Human), UniProt Q9NYK1); assay: TLR7 inhibition reporter assay (HEK-Blue SEAP); format: cell-based; conditions: HEK-Blue cells overexpressing human TLR7, gardiquimod 7.5 μM stimulation, SEAP reporter
human TLR9 = human TLR9 (Homo sapiens (Human), UniProt Q9NR96); assay: TLR9 inhibition reporter assay (HEK-Blue SEAP); conditions: read-out: TLR9 IC50; HEK-Blue cells overexpressing human TLR9, ODN2006 5 nM stimulation, SEAP reporter;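 further: SEAP driven by an IFN-β minimal promoter with NF-κB and AP-1 sites, read after 22 h, compounds dosed 0.05 nM–50 µM, inhibition scaled between agonist plus DMSO and reference-inhibitor wells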
Chain of human TLR9 (Q9NR96 26-1032): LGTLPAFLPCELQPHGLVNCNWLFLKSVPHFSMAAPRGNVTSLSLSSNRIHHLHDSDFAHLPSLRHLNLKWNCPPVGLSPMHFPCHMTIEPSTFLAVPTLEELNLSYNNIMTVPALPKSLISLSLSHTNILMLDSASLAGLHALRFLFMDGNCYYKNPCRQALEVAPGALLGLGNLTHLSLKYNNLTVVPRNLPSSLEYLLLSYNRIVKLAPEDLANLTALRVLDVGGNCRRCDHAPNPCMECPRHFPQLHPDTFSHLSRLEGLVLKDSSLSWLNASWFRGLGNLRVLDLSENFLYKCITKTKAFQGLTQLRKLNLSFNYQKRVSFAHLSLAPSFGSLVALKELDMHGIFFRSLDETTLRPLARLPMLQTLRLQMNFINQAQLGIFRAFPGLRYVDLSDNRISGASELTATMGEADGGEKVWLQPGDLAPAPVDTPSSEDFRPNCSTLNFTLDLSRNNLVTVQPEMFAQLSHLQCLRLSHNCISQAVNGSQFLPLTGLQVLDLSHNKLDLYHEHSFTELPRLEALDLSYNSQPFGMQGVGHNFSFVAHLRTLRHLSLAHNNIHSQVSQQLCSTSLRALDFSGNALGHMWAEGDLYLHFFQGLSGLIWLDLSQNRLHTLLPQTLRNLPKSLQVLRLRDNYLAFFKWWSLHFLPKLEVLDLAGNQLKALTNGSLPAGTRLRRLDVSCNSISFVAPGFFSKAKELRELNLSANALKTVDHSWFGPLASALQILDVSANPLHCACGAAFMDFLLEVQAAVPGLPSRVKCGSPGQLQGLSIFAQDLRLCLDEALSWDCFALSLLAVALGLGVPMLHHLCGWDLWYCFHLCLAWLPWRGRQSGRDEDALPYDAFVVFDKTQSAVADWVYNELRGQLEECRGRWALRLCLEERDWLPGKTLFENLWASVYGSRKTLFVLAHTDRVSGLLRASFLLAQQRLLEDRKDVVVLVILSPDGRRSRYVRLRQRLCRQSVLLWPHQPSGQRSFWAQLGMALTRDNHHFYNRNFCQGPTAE

human TLR8 = human TLR8 (Homo sapiens (Human), UniProt Q9NR97); assay: TLR8 inhibition reporter assay (HEK-Blue SEAP); conditions: read-out: TLR8 IC50; HEK-Blue cells overexpressing human TLR8, R848 15.9 μM stimulation, SEAP reporter;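 further: SEAP driven by IFN-β minimal promoter carrying NF-κB and AP-1 sites, compounds dosed 0.05 nM to 50 µM for 22 h, inhibition scaled between agonist-plus-DMSO and reference-inhibitor wells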
Chain of human TLR8 (Q9NR97 27-1041): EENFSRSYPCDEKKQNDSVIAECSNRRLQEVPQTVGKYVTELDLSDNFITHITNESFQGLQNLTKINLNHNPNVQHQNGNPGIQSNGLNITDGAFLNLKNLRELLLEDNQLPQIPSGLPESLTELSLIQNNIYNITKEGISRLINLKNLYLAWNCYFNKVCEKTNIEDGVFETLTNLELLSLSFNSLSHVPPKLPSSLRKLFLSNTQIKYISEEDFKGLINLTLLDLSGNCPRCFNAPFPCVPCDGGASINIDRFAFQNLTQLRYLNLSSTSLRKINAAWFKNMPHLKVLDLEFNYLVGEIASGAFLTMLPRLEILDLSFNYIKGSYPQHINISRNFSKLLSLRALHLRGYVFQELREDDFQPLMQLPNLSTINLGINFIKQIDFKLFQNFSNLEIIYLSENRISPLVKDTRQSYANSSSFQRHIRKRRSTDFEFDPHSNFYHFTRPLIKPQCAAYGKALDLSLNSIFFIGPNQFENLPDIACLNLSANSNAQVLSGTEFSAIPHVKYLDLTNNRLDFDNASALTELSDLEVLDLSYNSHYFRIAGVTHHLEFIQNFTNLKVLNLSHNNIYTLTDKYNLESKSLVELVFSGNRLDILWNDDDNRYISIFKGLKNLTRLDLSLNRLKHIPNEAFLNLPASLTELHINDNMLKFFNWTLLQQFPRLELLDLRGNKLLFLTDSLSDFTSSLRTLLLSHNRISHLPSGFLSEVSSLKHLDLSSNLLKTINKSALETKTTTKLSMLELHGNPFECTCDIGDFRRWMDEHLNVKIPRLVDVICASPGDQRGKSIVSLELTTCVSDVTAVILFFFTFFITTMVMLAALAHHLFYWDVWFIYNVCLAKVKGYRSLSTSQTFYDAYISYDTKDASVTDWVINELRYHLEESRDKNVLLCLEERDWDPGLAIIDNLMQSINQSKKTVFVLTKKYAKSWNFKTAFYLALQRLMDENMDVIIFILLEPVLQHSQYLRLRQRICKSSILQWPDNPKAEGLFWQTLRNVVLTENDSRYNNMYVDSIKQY
Description: HEK-Blue™-cells (Invivogen) overexpressing human TLR7, TLR8 or TLR9 receptors were used for screening inhibitors of these receptors using an inducible SEAP (secreted embryonic alkaline phosphatase) reporter gene under the control of the IFN-β minimal promoter fused to five NF-κB and AP-1-binding sites. Briefly, cells are seeded into Greiner 384 well plates (15000 cells per well for TLR7, 20,000 for TLR8 and 25,000 for TLR9) and then treated with test compounds in DMSO to yield a final dose response concentration range of 0.05 nM-50 μM. After a 30 minute compound pre-treatment at room temperature, the cells are then stimulated with a TLR7 ligand (gardiquimod at a final concentration of 7.5 μM), TLR8 ligand (R848 at a final concentration of 15.9 μM) or TLR9 ligand (ODN2006 at a final concentration of 5 nM) to activate NF-κB and AP-1 which induce the production of SEAP. After a 22 hour incubation at 37° C., 5% CO2, SEAP levels are determined with the addition of HEK-Blue™ Detection reagent (Invivogen), a cell culture medium that allows for detection of SEAP, according to manufacturer's specifications.

Chain of human TLR7 (Q9NYK1 27-1049): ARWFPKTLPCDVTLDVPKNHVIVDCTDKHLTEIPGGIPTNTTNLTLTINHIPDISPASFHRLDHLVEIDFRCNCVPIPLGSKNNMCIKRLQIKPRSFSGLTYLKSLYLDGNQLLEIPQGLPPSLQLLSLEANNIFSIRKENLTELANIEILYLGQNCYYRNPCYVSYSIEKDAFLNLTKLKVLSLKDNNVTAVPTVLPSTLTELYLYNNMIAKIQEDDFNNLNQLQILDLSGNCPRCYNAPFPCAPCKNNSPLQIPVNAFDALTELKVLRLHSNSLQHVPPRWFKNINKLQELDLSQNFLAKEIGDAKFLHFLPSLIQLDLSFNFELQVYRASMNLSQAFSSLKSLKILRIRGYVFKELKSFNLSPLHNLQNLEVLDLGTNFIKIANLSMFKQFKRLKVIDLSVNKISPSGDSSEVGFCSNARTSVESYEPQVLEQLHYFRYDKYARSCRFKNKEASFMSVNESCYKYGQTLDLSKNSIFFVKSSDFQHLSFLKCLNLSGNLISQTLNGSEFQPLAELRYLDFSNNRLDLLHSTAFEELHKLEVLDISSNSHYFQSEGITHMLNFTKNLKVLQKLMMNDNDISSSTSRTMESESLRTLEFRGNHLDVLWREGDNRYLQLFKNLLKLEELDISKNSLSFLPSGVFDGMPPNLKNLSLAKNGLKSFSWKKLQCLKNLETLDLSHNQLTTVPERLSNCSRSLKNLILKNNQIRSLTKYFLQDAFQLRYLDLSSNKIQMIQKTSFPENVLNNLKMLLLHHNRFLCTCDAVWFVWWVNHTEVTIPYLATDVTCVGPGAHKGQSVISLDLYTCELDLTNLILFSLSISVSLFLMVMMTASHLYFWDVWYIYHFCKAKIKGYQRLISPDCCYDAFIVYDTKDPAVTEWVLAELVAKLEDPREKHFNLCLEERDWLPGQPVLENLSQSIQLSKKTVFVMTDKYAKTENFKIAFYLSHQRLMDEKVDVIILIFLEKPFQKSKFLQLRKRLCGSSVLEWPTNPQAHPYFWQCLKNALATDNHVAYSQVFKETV

SMILES	IC50 (human TLR7)	IC50 (human TLR9)	IC50 (human TLR8)
Cc1c(-c2[nH]c3ccc(N4CCN(C)CC4)nc3c2C(C)C)cn2ncnc2c1C [Example 96, 6-(3-isopropyl-5-(4-methylpiperazin-1-yl)-1H-pyrrolo[3,2-b]pyridin-2-yl)-7,8-dimethyl-[1,2,4]triazolo[1,5-a]pyridine]	1.5 nM	9430 nM	0.28 nM
Cc1c(-c2[nH]c3ccc(N4CCN(CC5(C)COC5)CC4)nc3c2C(C)C)cn2ncnc2c1C [Example 97]	28 nM	> 50000 nM	4.1 nM
Cc1c(-c2[nH]c3ccc(N4CCN(C(=O)CCN(C)C)CC4)nc3c2C(C)C)cn2ncnc2c1C [Example 98]	0.74 nM	5230 nM	0.72 nM
COc1cc(-c2[nH]c3ccc(N4CCN(C(=O)CCN(C)C)CC4)nc3c2C(C)C)cn2ncnc12 [Example 99]	0.51 nM	4300 nM	2.9 nM
Cc1c(-c2[nH]c3ccc(N4CCN(C(C)C)CC4)nc3c2C(C)C)cn2ncnc2c1C [Example 100]	3.2 nM	6150 nM	0.55 nM
Cc1c(-c2[nH]c3ccc(N4CCN(C5CCOCC5)CC4)nc3c2C(C)C)cn2ncnc2c1C [Example 101]	3.7 nM	6400 nM	0.25 nM
Cc1c(-c2[nH]c3ccc(N4CCN(CC(C)(C)O)CC4)nc3c2C(C)C)cn2ncnc2c1C [Example 105, 1-(4-(2-(7,8-dimethyl-[1,2,4]triazolo[1,5-a]pyridin-6-yl)-3-isopropyl-1H-pyrrolo[3,2-b]pyridin-5-yl)piperazin-1-yl)-2-methylpropan-2-ol]	3.9 nM	9240 nM	0.15 nM
COCC(C)N1CCN(c2ccc3[nH]c(-c4cc(OC)c5ncnn5c4)c(C(C)C)c3n2)CC1 (stereo not drawn) [Example 112]	2.2 nM	6010 nM	1.2 nM
COc1cc(-c2[nH]c3ccc(N4CCN(C(C)CCO)CC4)nc3c2C(C)C)cn2ncnc12 (stereo not drawn) [Example 118]	1.8 nM	5580 nM	0.86 nM
COc1cc(-c2[nH]c3ccc(N4CCN(C5CCN(C(C)=O)CC5)CC4)nc3c2C(C)C)cn2ncnc12 [Example 121]	3.4 nM	6350 nM	0.8 nM
CC(C)c1c(-c2cn(C)c3ncncc23)[nH]c2ccc(N3CCNCC3)nc12 [Example 122]	1.7 nM	7250 nM	1.1 nM
CC(C)c1c(-c2cn(C)c3ncncc23)[nH]c2ccc(N3CCN(C(=O)CN(C)C)CC3)nc12 [Example 123]	1.9 nM	8650 nM	6.3 nM
CC(C)c1c(-c2cn(C)c3ncncc23)[nH]c2ccc(N3CCN(C(=O)CCN(C)C)CC3)nc12 [Example 124]	1.2 nM	5790 nM	4.7 nM
CC(C)c1c(-c2cn(C)c3ncncc23)[nH]c2ccc(N3CCN(C)CC3)nc12 [Example 125]	2.6 nM	6540 nM	0.66 nM
CC(C)c1c(-c2cn(C)c3ncncc23)[nH]c2ccc(N3CCN(C(C)C)CC3)nc12 [Example 126]	5.9 nM	6120 nM	1.5 nM
CC(C)c1c(-c2cn(C)c3ncncc23)[nH]c2ccc(N3CCN(C4CCOCC4)CC3)nc12 [Example 127]	4.6 nM	5900 nM	0.48 nM
COc1cc(-c2[nH]c3ccc(N4CCN(Cc5cn(C)nn5)CC4)nc3c2C(C)C)cn2ncnc12 [Example 129]	6.7 nM	22800 nM	1.3 nM
COc1cc(-c2[nH]c3ccc(N4CCN(CCCS(C)(=O)=O)CC4)nc3c2C(C)C)cn2ncnc12 [Example 132]	2.8 nM	7390 nM	0.51 nM
COc1cc(-c2[nH]c3ccc(N4CCN(C5CCS(=O)(=O)CC5)CC4)nc3c2C(C)C)cn2ncnc12 [Example 133]	4.3 nM	> 50000 nM	1.4 nM
Cc1c(-c2[nH]c3ccc(N4CCNCC4=O)nc3c2C(C)C)cn2ncnc2c1C [Example 139]	37 nM	> 50000 nM	14 nM
Cc1c(-c2[nH]c3ccc(N4CCN(C5COC5)CC4=O)nc3c2C(C)C)cn2ncnc2c1C [Example 140]	127 nM	> 50000 nM	186 nM
Cc1c(-c2[nH]c3ccc(N4CCN(CC(=O)N(C)C)CC4=O)nc3c2C(C)C)cn2ncnc2c1C [Example 141]	134 nM	> 50000 nM	148 nM
Cc1c(-c2[nH]c3ccc(N4CCN(C)CC4=O)nc3c2C(C)C)cn2ncnc2c1C [Example 142]	107 nM	> 50000 nM	45 nM
Cc1c(-c2[nH]c3ccc(N4CCN(C(=O)CN5CCOCC5)CC4)nc3c2C(C)C)cn2ncnc2c1C [Example 143]	7.8 nM	> 50000 nM	4.5 nM

Now from value to compound:

IC50 (human TLR7)	IC50 (human TLR9)	IC50 (human TLR8)	SMILES
0.68 nM	6310 nM	0.53 nM	COc1cc(-c2[nH]c3ccc(N4CCN(C)CC4)nc3c2C(C)C)cn2ncnc12 [Example 91]
0.87 nM	3990 nM	0.78 nM	COc1cc(-c2[nH]c3ccc(N4CCN(C(C)C)CC4)nc3c2C(C)C)cn2ncnc12 [Example 92]
5.3 nM	35000 nM	7.2 nM	COc1cc(-c2[nH]c3ccc(N4CCN(C5COC5)CC4)nc3c2C(C)C)cn2ncnc12 [Example 93]
1 nM	9350 nM	1.4 nM	COc1cc(-c2[nH]c3ccc(N4CCN(CC#N)CC4)nc3c2C(C)C)cn2ncnc12 [Example 94]
4.9 nM	> 50000 nM	3.6 nM	COc1cc(-c2[nH]c3ccc(N4CCN(CCS(C)(=O)=O)CC4)nc3c2C(C)C)cn2ncnc12 [Example 95]
12 nM	> 50000 nM	5.1 nM	COc1cc(-c2[nH]c3ccc(N4CCN(CC5(C)COC5)CC4)nc3c2C(C)C)cn2ncnc12 [Example 102]
2.3 nM	4160 nM	0.75 nM	COc1cc(-c2[nH]c3ccc(N4CCN(C5CCOCC5)CC4)nc3c2C(C)C)cn2ncnc12 [Example 104]
2.2 nM	7780 nM	0.28 nM	COc1cc(-c2[nH]c3ccc(N4CCN(CC(C)(C)O)CC4)nc3c2C(C)C)cn2ncnc12 [Example 106]
2.2 nM	5630 nM	0.37 nM	COc1cc(-c2[nH]c3ccc(N4CCN(CC5CCOC5)CC4)nc3c2C(C)C)cn2ncnc12 (stereo not drawn) [Example 107]
2.5 nM	3510 nM	0.99 nM	COc1cc(-c2[nH]c3ccc(N4CCN(C5CCC5)CC4)nc3c2C(C)C)cn2ncnc12 [Example 108]
3.6 nM	8010 nM	1.3 nM	COc1cc(-c2[nH]c3ccc(N4CCN(CC(C)C)CC4)nc3c2C(C)C)cn2ncnc12 [Example 109]
1.9 nM	4540 nM	0.76 nM	COc1cc(-c2[nH]c3ccc(N4CCN(CCC(C)C)CC4)nc3c2C(C)C)cn2ncnc12 [Example 110]
1.4 nM	3360 nM	0.95 nM	COc1cc(-c2[nH]c3ccc(N4CCN(C5CCC(O)CC5)CC4)nc3c2C(C)C)cn2ncnc12 (stereo not drawn) [Example 113]
4.7 nM	7590 nM	1.8 nM	COc1cc(-c2[nH]c3ccc(N4CCN(CCC(C)(C)C)CC4)nc3c2C(C)C)cn2ncnc12 [Example 114]
1.2 nM	3480 nM	0.49 nM	CCCCN1CCN(c2ccc3[nH]c(-c4cc(OC)c5ncnn5c4)c(C(C)C)c3n2)CC1 [Example 115]
9.7 nM	35600 nM	5 nM	COc1cc(-c2[nH]c3ccc(N4CCN(CCC(F)(F)F)CC4)nc3c2C(C)C)cn2ncnc12 [Example 116]
1.4 nM	5640 nM	0.81 nM	COc1cc(-c2[nH]c3ccc(N4CCN(C(C)CO)CC4)nc3c2C(C)C)cn2ncnc12 (stereo not drawn) [Example 117]
1.8 nM	14100 nM	0.96 nM	CCN1CCN(c2ccc3[nH]c(-c4cc(OC)c5ncnn5c4)c(C(C)C)c3n2)CC1 [Example 119]
2.3 nM	5490 nM	0.6 nM	COc1cc(-c2[nH]c3ccc(N4CCN(CC5CC5)CC4)nc3c2C(C)C)cn2ncnc12 [Example 120]
5.4 nM	35400 nM	2.6 nM	COc1cc(-c2[nH]c3ccc(N4CCN(CC(=O)N(C)C)CC4)nc3c2C(C)C)cn2ncnc12 [Example 128]
4.3 nM	> 50000 nM	4.7 nM	COc1cc(-c2[nH]c3ccc(N4CCN(CC(N)=O)CC4)nc3c2C(C)C)cn2ncnc12 [Example 130]
3.3 nM	8570 nM	0.63 nM	COCCN1CCN(c2ccc3[nH]c(-c4cc(OC)c5ncnn5c4)c(C(C)C)c3n2)CC1 [Example 131]
3.7 nM	26100 nM	1.1 nM	COc1cc(-c2[nH]c3ccc(N4CCN(CCNS(C)(=O)=O)CC4)nc3c2C(C)C)cn2ncnc12 [Example 134]
4.7 nM	13200 nM	1.6 nM	COc1cc(-c2[nH]c3ccc(N4CCN(CCCC(F)(F)F)CC4)nc3c2C(C)C)cn2ncnc12 [Example 135]
5.7 nM	8220 nM	0.79 nM	COc1cc(-c2[nH]c3ccc(N4CCN(CCC(=O)N(C)C)CC4)nc3c2C(C)C)cn2ncnc12 [Example 136]
5.6 nM	8450 nM	1.3 nM	COc1cc(-c2[nH]c3ccc(N4CCN(CCC(N)=O)CC4)nc3c2C(C)C)cn2ncnc12 [Example 137]
11 nM	> 50000 nM	4.6 nM	CNC(=O)CN1CCN(c2ccc3[nH]c(-c4cc(OC)c5ncnn5c4)c(C(C)C)c3n2)CC1 [Example 138]
